{"source": "patent US20230405017A1", "about": "“METHODS OF USING RHO KINASE INHIBITORS TO TREAT FRONTOTEMPORAL DEMENTIA” (Woolsey Pharmaceuticals, Inc., priority 2020, published 2023)", "origin": "cited, not measured here", "details": "in vivo; 1-hydroxy (M3) metabolite of fasudil"}
{"smiles": "O=S(=O)(c1cccc2c(O)nccc12)N1CCCNCC1", "note": "[M3]", "values": [{"measurement": "half-life", "result": "about 8 hours"}]}
